Key:
Type in all cases: in vivo
[1] = system: Digitaria sanguinalis (DIGSA); assay: Example A pre-emergence herbicidal activity, glasshouse pot test; conditions: 480 h, rate 500 g/ha, evaluated 20 days later, 100=total damage to plant, 0=no damage to plant
Method: (§1) Seeds of a variety of test species were sown in standard soil in pots. After cultivation for one day (pre-emergence) or after 10 days cultivation (post-emergence) under controlled conditions in a glasshouse, the plants were sprayed with an aqueous spray solution derived from the formulation of the technical active ingredient in 0.6 ml acetone and 45 ml formulation solution containing 10.6% Emulsogen EL (Registry number 61791-12-6), 42.2% N-methylpyrrolidone, 42.2% dipropylene glycol monomethyl ether (Registry number 34590-94-8) and 0.2% X-77 (Registry number 11097-66-8). The test plants were then grown in a greenhouse under optimum conditions until, 15 days later for post-emergence and 20 days for pre-emergence, the test was evaluated (100=total damage to plant; 0=no damage to plant). Alopecurus myosuroides (ALOMY), Avena fatua (AVEFA), Lolium perenne (LOLPE), Setaria faberi (SETFA), Digitaria sanguinalis (DIGSA), Echinochloa crus-galli (ECHCG) Pre-Emergence Activity

Setaria faberi (SETFA) [2] = assay: as above; conditions: 480 h, rate 500 g/ha, evaluated 20 days later, 100=total damage to plant, 0=no damage to plant
Method: as §1

[3] = system: Echinochloa crus-galli (ECHCG); assay: as above; conditions: 480 h, rate 500 g/ha, evaluated 20 days later, 100=total damage to plant, 0=no damage to plant
Method: as §1

Lolium perenne (LOLPE) [4] = assay: as above; conditions: 480 h, rate 500 g/ha, evaluated 20 days later, 100=total damage to plant, 0=no damage to plant
Method: as §1

[5] = system: Alopecurus myosuroides (ALOMY); assay: as above; conditions: 480 h, rate 500 g/ha, evaluated 20 days later, 100=total damage to plant, 0=no damage to plant
Method: as §1

Avena fatua (AVEFA) [6] = assay: as above; conditions: 480 h, rate 500 g/ha, evaluated 20 days later, 100=total damage to plant, 0=no damage to plant
Method: as §1

[7] = system: Digitaria sanguinalis (DIGSA); assay: Example A post-emergence herbicidal activity, glasshouse pot test; conditions: 360 h, evaluated 15 days after spraying, read-out: herbicidal damage DIGSA (100=total damage to plant; 0=no damage to plant); for pest or weed control at 500 g/ha: rate 500 g/ha; for pest or weed control at 125 g/ha: rate 125 g/ha
Method: as §1, with “Post Emergency” for “Pre-Emergence”

Setaria faberi (SETFA) [8] = assay: as above; conditions: 360 h, evaluated 15 days after spraying, read-out: herbicidal damage SETFA (100=total damage to plant; 0=no damage to plant); for pest or weed control at 500 g/ha: rate 500 g/ha; for pest or weed control at 125 g/ha: rate 125 g/ha
Method: as §1, with “Post Emergency” for “Pre-Emergence”

[9] = system: Echinochloa crus-galli (ECHCG); assay: as above; conditions: 360 h, evaluated 15 days after spraying, read-out: herbicidal damage ECHCG (100=total damage to plant; 0=no damage to plant); for pest or weed control at 500 g/ha: rate 500 g/ha; for pest or weed control at 125 g/ha: rate 125 g/ha
Method: as §1, with “Post Emergency” for “Pre-Emergence”

Lolium perenne (LOLPE) [10] = assay: as above; conditions: 360 h, evaluated 15 days after spraying, read-out: herbicidal damage LOLPE (100=total damage to plant; 0=no damage to plant); for pest or weed control at 500 g/ha: rate 500 g/ha; for pest or weed control at 125 g/ha: rate 125 g/ha
Method: as §1, with “Post Emergency” for “Pre-Emergence”

[11] = system: Alopecurus myosuroides (ALOMY); assay: as above; conditions: 360 h, evaluated 15 days after spraying, read-out: herbicidal damage ALOMY (100=total damage to plant; 0=no damage to plant); for pest or weed control at 500 g/ha: rate 500 g/ha; for pest or weed control at 125 g/ha: rate 125 g/ha
Method: as §1, with “Post Emergency” for “Pre-Emergence”

Avena fatua (AVEFA) [12] = assay: as above; conditions: 360 h, evaluated 15 days after spraying, read-out: herbicidal damage AVEFA (100=total damage to plant; 0=no damage to plant); for pest or weed control at 500 g/ha: rate 500 g/ha; for pest or weed control at 125 g/ha: rate 125 g/ha
Method: as §1, with “Post Emergency” for “Pre-Emergence”

| SMILES | pest or weed control at 500 g/ha [1] | pest or weed control at 500 g/ha (Setaria faberi (SETFA) [2]) | pest or weed control at 500 g/ha [3] | pest or weed control at 500 g/ha (Lolium perenne (LOLPE) [4]) | pest or weed control at 500 g/ha [5] | pest or weed control at 500 g/ha (Avena fatua (AVEFA) [6]) | pest or weed control at 500 g/ha [7] | pest or weed control at 500 g/ha (Setaria faberi (SETFA) [8]) | pest or weed control at 500 g/ha [9] | pest or weed control at 500 g/ha (Lolium perenne (LOLPE) [10]) | pest or weed control at 500 g/ha [11] | pest or weed control at 500 g/ha (Avena fatua (AVEFA) [12]) | pest or weed control at 125 g/ha [7] | pest or weed control at 125 g/ha (Setaria faberi (SETFA) [8]) | pest or weed control at 125 g/ha [9] | pest or weed control at 125 g/ha (Lolium perenne (LOLPE) [10]) | pest or weed control at 125 g/ha [11] | pest or weed control at 125 g/ha (Avena fatua (AVEFA) [12]) |
| --- | --- | --- | --- | --- | --- | --- | --- | --- | --- | --- | --- | --- | --- | --- | --- | --- | --- | --- |
| CCc1ccc(-c2ccc(Cl)cc2)cc1C1=C(O)CC(CC2CCOC2)CC1=O (centres unmarked) [Compound A-4] | 70% | 80% | 100% | 30% | 60% | 40% | 100% | 100% | 100% | 70% | 80% | 70% |  |  |  |  |  |  |
| Cc1cc(C)c(C2=C(O)CC(C(C)C3CCOCC3)CC2=O)c(C)c1 (centres unmarked) [Compound A-10] | 60% | 60% | 80% | 70% | 50% | 50% | 70% | 50% | 50% | 60% | 80% | 80% |  |  |  |  |  |  |
| CCc1cc(C)cc(CC)c1C1=C(O)CC(CC2OCC(C)(C)CO2)CC1=O (centres unmarked) [Compound A-8] | 100% | 70% | 70% | 100% | 100% | 50% | 70% | 70% | 100% | 80% | 60% | 50% |  |  |  |  |  |  |
| CCc1cc(C)cc(CC)c1C1=C(O)CC(CC2CCS(=O)(=O)CC2)CC1=O (centres unmarked) [Compound A-17] | 100% | 100% | 100% | 100% | 100% | 100% |  |  |  |  |  |  | 80% | 50% | 100% | 90% | 90% | 100% |
| Cc1ccc(-c2ccc(Cl)cc2)cc1C1=C(O)CC(CC2CCOC2)CC1=O (centres unmarked) [Compound A-2] | 50% | 60% | 100% | 10% | 20% | 40% | 90% | 90% | 100% | 50% | 70% | 40% |  |  |  |  |  |  |
| CCc1cc(C)cc(CC)c1C1=C(O)CC(CC2CC[S+]([O-])CC2)CC1=O (centres unmarked) [Compound A-16] | 100% |  | 100% | 100% | 100% | 90% | 100% | 80% | 70% | 90% | 60% | 90% |  |  |  |  |  |  |
| CCc1ccc(-c2ccc(Cl)cc2)cc1C1=C(O)CC(C(C)C2CCOCC2)CC1=O (centres unmarked) [Compound A-13] | 30% | 30% | 30% | 10% | 30% | 20% | 90% | 50% | 100% | 70% | 80% | 30% |  |  |  |  |  |  |
| Cc1ccc(-c2ccc(Cl)cc2)cc1C1=C(O)CC(C(C)C2CCOCC2)CC1=O (centres unmarked) [Compound A-15] | 20% | 20% | 10% | 0% | 10% | 40% | 70% | 30% | 50% | 30% | 60% | 30% |  |  |  |  |  |  |
| CCc1cc(C)cc(CC)c1C1=C(O)CC(C(C)C2CCOCC2)CC1=O (centres unmarked) [Compound A-11] |  |  | 70% | 100% | 100% | 100% | 90% | 80% | 100% | 90% | 100% | 90% |  |  |  |  |  |  |
| CCc1cc(C)cc(CC)c1C1=C(O)CC(CC2CCOC2)CC1=O (centres unmarked) [Compound A-3] | 100% | 100% | 100% | 100% | 80% | 90% | 100% | 80% | 100% | 80% | 80% | 80% |  |  |  |  |  |  |
| CCc1cc(C)cc(CC)c1C1=C(O)CC(CC2CCSCC2)CC1=O (centres unmarked) [Compound A-14] | 100% | 100% | 80% | 90% | 80% | 70% | 70% | 100% | 100% | 90% | 100% | 100% |  |  |  |  |  |  |
| CCc1ccc(-c2ccc(Cl)cc2)cc1C1=C(O)CC(CC2CCOCC2)CC1=O (centres unmarked) [Compound A-20] | 40% | 70% | 100% | 40% | 50% | 10% |  |  |  |  |  |  | 100% | 80% | 100% | 40% | 40% | 60% |
| CCc1cc(CC)c(C2=C(O)CC(C(C)C3CCOCC3)CC2=O)c(CC)c1 (centres unmarked) [Compound A-12] | 70% | 60% | 70% | 100% |  | 40% | 70% | 70% | 80% | 80% | 80% | 80% |  |  |  |  |  |  |
